From US11987604B2, “Fusion-proteins based on human ferritin and protease-cleavable peptides and their use as chemotherapeutics carriers” (THENA BIOTECH S.R.L., priority 2017, dated 2024)

Key:
Type in all cases: cell-based
[1] = system: pancreatic Capan 1 cancer cells; assay: XTT viability assay, Capan 1; settings: Homo sapiens, Capan 1 cells, read-out: killing efficacy (IC50)
[2] = system: pancreatic MiaPaCa2 cancer cells; assay: XTT viability assay, MiaPaCa2; settings: Homo sapiens, MIA PaCa-2, read-out: killing efficacy (IC50)
[3] = system: pancreatic PaCa 44 cancer cells; assay: XTT viability assay, PaCa 44; settings: Homo sapiens, Paca44 cells, read-out: killing efficacy (IC50)
SW620 colon cancer cells = assay: Cell internalization and localization by confocal microscopy, SW620; settings: SW620, 3 h incubation at 37° C., 20 μM MIT
Description: (§1) Left panels: Lamin A/C staining (nuclear membrane marker, green); central panels: MIT (blue); right panels: merge. The white bar indicates a 10 μm length.
(§2) MIT concentration is 20 μM in all experiments. The white bar indicates a 20 μm length.
(§3) To determine whether MIT containing HFt based constructs undergo cell surface binding and/or internalization, they were incubated with colon cancer cells SW480 and SW620 at 37° C. for 1 or 3 h and MIT associated fluorescence was visualized by confocal microscopy. […] In particular, MIT localizes in intranuclear structures assumed to be nucleoli on the basis of size, position and shape, as previously proposed for colon carcinoma and breast cancer cells.

SW480 colon cancer cells = assay: Cell internalization and localization by confocal microscopy, SW480; settings: SW480, 3 h incubation at 37° C., 20 μM MIT
Description: as §1, §2, §3

Structure (SMILES)	IC50 [1]	IC50 [2]	IC50 [3]	MIT localization in cells (SW620 colon cancer cells)	MIT localization in cells (SW480 colon cancer cells)
Nc1ccn([C@@H]2O[C@H](CO)[C@@H](O)C2(F)F)c(=O)n1 [Gemcitabine]	2.8 µM	1.15 µM	6.75 µM		
O=C1c2c(O)ccc(O)c2C(=O)c2c(NCCNCCO)ccc(NCCNCCO)c21 [MIT, mitoxantrone]				partly present also in the cytoplasm	partly present also in the cytoplasm
